Target: T1, human Plk4 kinase domain (aa 2-275) (Homo sapiens, UniProt O00444)
T1 construct: purified 6×His-tagged human Plk4 kinase domain (aa 2-275); 6xHis; made in house; host or cells: E. coli
T1 sequence (O00444 2-275): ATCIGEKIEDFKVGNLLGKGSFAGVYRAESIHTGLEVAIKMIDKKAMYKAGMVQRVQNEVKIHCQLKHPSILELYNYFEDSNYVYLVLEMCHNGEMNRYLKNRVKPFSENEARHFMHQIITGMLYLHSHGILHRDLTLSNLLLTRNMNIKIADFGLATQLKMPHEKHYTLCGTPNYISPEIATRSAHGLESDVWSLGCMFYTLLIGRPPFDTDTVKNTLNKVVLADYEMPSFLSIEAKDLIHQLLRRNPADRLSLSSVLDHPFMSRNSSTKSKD
Assay: Plk4 kinase assay (ADP-Glo)
Format: biochemical
Conditions: Table 1
Outline: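 Enzyme at 2.5-10 nM final, pH 8.0, reacted 4-16 hours at 25° C; ADP generation read by ADP-Glo luminescence. Ki derived from IC50 by Cheng-Prusoff or, for tight binders, Copeland formalism.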

SMILES | IC50
COc1c(Nc2cc(C)[nH]n2)nc(Sc2ccc(S(=O)(=O)Cc3ccccc3Cl)cc2)nc1N1CCN(CCN(C)C)CC1 | < 1 µM
CCOc1c(Nc2cc(C)[nH]n2)nc(Sc2ccc(NC(=O)C3CCCC3)cc2)nc1N1CCN(C)CC1 | 0.1 to 1 µM
COc1c(Nc2cc(C)[nH]n2)nc(Sc2ccc(S(C)(=O)=O)cc2F)nc1N1CCC(CCN(C)C)CC1 | < 1 µM
CNC(=O)c1ccc(Sc2nc(Nc3cc(C)[nH]n3)c(OC)c(N3CCN(CCN(C)C)CC3)n2)cc1 | < 1 µM
COc1c(Nc2cc(C)[nH]n2)nc(Sc2ccc(S(=O)(=O)COCc3ccccc3)cc2)nc1N1CCN(CCN(C)C)CC1 | < 1 µM
COc1c(Nc2cc(C)[nH]n2)nc(Sc2ccc(NC(C)=O)cc2)nc1N1CCN(CCN2C3CCCC2CCC3)CC1 | < 1 µM
COc1c(Nc2cc(C)[nH]n2)nc(Sc2ccc(S(=O)(=O)Cc3ncco3)cc2)nc1N1CCN(CCN(C)C)CC1 | < 1 µM
COC(=O)Nc1ccc(Sc2nc(Nc3cc(C)[nH]n3)c(C)c(N3CCCCC3)n2)cc1 | < 1 µM
COc1c(Nc2cc(C)[nH]n2)nc(Sc2ccc(NC(C)=O)cc2)nc1NC1CCNCC1 | < 1 µM
COc1c(Nc2cc(C)[nH]n2)nc(Sc2ccc(S(=O)(=O)Cc3ccccc3)cc2)nc1N1CCCCC1 | < 1 µM
CC(=O)Nc1ccc(Sc2nc(Nc3cc(C)[nH]n3)c3c(n2)C2(CC3)CCN(CCN(C)C)CC2)cc1 | < 1 µM
CC(=O)Nc1ccc(Sc2nc(Nc3cc(C)[nH]n3)c(C)c(N3CCC(N)CC3)n2)cc1 | < 1 µM
CC(=O)Nc1ccc(Sc2nc(Nc3cc(C)[nH]n3)c(C)c(N3CCCCC3)n2)cc1 | < 1 µM
COc1c(Nc2cc(C)[nH]n2)nc(Sc2ccc(S(=O)(=O)Cc3c(F)c(F)cc(Cl)c3F)cc2F)nc1N1CCC(CCN(C)C)CC1 | < 1 µM
Cc1cc(Nc2nc(Sc3ccc(NC(=O)C4CCC4)cc3)nc(N3CCN(C)CC3)c2C)n[nH]1 | < 1 µM
CC(=O)Nc1ccc(Sc2nc(Nc3cc(C)[nH]n3)c(C)c(N3CCN(C(C)C)CC3)n2)cc1 | < 1 µM
COc1c(Nc2cc(C)[nH]n2)nc(Sc2ccc(NC(=O)Cc3cccc([N+](=O)[O-])c3F)cc2F)nc1N1CCOCC1 | < 1 µM
COc1c(Nc2cc(C)[nH]n2)nc(Sc2ccc(S(=O)(=O)Cc3cccc([N+](=O)[O-])c3F)cc2F)nc1N1CCOC[C@@H]1C | < 1 µM
COc1c(Nc2cc(C)[nH]n2)nc(Sc2ccc(NC(=O)C3CC3)cc2)nc1N1CCN(C)CC1 | < 1 µM
CC(=O)Nc1ccc(Sc2nc3c(c(Nc4cc(C)[nH]n4)n2)C(C)CC3)cc1 (stereo not drawn) | < 1 µM
COc1c(Nc2cc(C)[nH]n2)nc(Sc2ccc(S(=O)(=O)C(C)(C)c3c(F)c(F)c(F)c(F)c3F)cc2F)nc1N1CCC(CCN(C)C)CC1 | < 1 µM
COc1c(Nc2cc(C)[nH]n2)nc(Sc2ccc(NC(C)=O)cc2)nc1N1CCC(CC(=O)N(C)C)CC1 | < 1 µM
CC(=O)Nc1ccc(Sc2nc(Nc3cc(C)[nH]n3)c(C)c(N3C4CCC3CC(O)C4)n2)cc1 (stereo not drawn) | < 1 µM
COc1c(Nc2cc(C)[nH]n2)nc(Sc2ccc(S(=O)(=O)Cc3cccc([N+](=O)[O-])c3)cc2F)nc1N1CCOC[C@@H]1C | < 1 µM
CCOc1c(Nc2cc(C)[nH]n2)nc(Sc2ccc(NC(=O)C3CCCC3)cc2)nc1N(C)CC | 0.1 to 1 µM

SMILES | IC50
COc1c(Nc2cc(C)[nH]n2)nc(Sc2ccc(S(=O)(=O)C(C)(C)c3c(F)c(F)cc(F)c3F)cc2F)nc1N1CCC(NC(C)=O)CC1 | < 1 µM
COc1c(Nc2cc(C)[nH]n2)nc(Sc2ccc(NC(=O)C3CC3)cc2)nc1N1CCN(C(C)=O)CC1 | < 1 µM
CCOc1c(Nc2cc(C)[nH]n2)nc(SC)nc1N1CCCCC1 | 0.1 to 1 µM
CCOc1c(Nc2cc(C)[nH]n2)nc(Sc2ccc(NC(=O)C3CC3)cc2)nc1N1CCN(C(=O)CN(C)C)CC1 | 0.1 to 1 µM
COc1c(Nc2cc(C)[nH]n2)nc(Sc2ccc(NC(C)=O)cc2)nc1N1CCN(CCN)CC1 | < 1 µM
CCN(CC)c1nc(Sc2ccc(NC(=O)C3CCCC3)cc2)nc(Nc2cc(C)[nH]n2)c1OC | 0.1 to 1 µM
Cc1cc(Nc2nc(Sc3ccc(NC(=O)C4CC4)cc3)nc(N3CCCCC3)c2C)n[nH]1 | < 1 µM
COc1c(Nc2cc(C)[nH]n2)nc(Sc2ccc(S(=O)(=O)Cc3ccccc3)cc2)nc1N1CCN(Cc2ccncc2)CC1 | < 1 µM
Cc1cc(Nc2nc(Sc3ccc(NC(=O)C4CCCC4)cc3)nc(N(C)C)c2C)n[nH]1 | < 1 µM
COc1ccc([N+](=O)[O-])cc1CS(=O)(=O)c1ccc(Sc2nc(Nc3cc(C)[nH]n3)c(OC)c(N3CCN(CCN(C)C)CC3)n2)cc1 | < 1 µM
CC(=O)Nc1ccc(Sc2nc(Nc3cc(C)[nH]n3)c(C)c(N3CCCCCC3)n2)cc1 | < 1 µM
COc1c(Nc2cc(C)[nH]n2)nc(Sc2ccc(S(=O)(=O)Cc3nccs3)cc2)nc1N1CCN(CCN(C)C)CC1 | < 1 µM
CC(=O)Nc1ccc(Sc2nc(Nc3cc(C)[nH]n3)c(C)c(N3CCN(C(=O)CCN(C)C)CC3)n2)cc1 | < 1 µM
Cc1cc(Nc2nc(Sc3ccc(N(C)C)cc3)nc(N3CCCCC3)c2C)n[nH]1 | < 1 µM
COc1c(Nc2cc(C)[nH]n2)nc(Sc2ccc(S(=O)(=O)C(C)(C)c3c(F)c(F)cc(F)c3F)cc2F)nc1N1CC[C@H](N(C)C)C1 | < 1 µM
Cc1cc(Nc2nc(Sc3ccccc3)nc(N3CCC(O)CC3)c2C)n[nH]1 | < 1 µM
CCNc1nc(Sc2ccc(NC(=O)C3CC3)cc2)nc(Nc2cc(C)[nH]n2)c1C | < 1 µM
COc1c(Nc2cc(C)[nH]n2)nc(Sc2ccc(NC(=O)C3CC3)cc2)nc1N1CCOCC1 | < 1 µM
COc1c(Nc2cc(C)[nH]n2)nc(Sc2ccc(S(=O)(=O)C(C)(C)c3cccc([N+](=O)[O-])c3F)cc2F)nc1N1CC[C@@H](N(C)C)C1 | < 1 µM
COc1c(Nc2cc(C)[nH]n2)nc(Sc2ccc(S(=O)(=O)Cc3ccccc3)cc2)nc1N1CCN(CCN2CCCCCC2)CC1 | < 1 µM
COc1c(Nc2cc(C)[nH]n2)nc(Sc2ccc(NC(=O)C3CC3)cc2)nc1N1CCN(C(C)C)CC1 | < 1 µM
COc1c(Nc2cc(C)[nH]n2)nc(Sc2ccc(NC(=O)C3CCCC3)cc2)nc1N1CCCCC1 | 0.1 to 1 µM
COc1c(Nc2cc(C)[nH]n2)nc(Sc2ccc(S(=O)(=O)C(C)(C)c3cccc([N+](=O)[O-])c3F)cc2F)nc1N1CCN(C(=O)CN(C)C)CC1 | < 1 µM
COc1c(Nc2cc(C)[nH]n2)nc(Sc2ccc(S(=O)(=O)Cc3cccc([N+](=O)[O-])c3)cc2)nc1N1CCO[C@H](C)C1 | < 1 µM
CNCCN(C)c1nc(Sc2ccc(NC(=O)C3CC3)cc2)nc(Nc2cc(C)[nH]n2)c1C | < 1 µM

SMILES | IC50
COc1c(Nc2cc(C)[nH]n2)nc(Sc2ccc(NC(C)=O)cc2)nc1N1CCC(C)CC1 | 0.1 to 1 µM
CC(=O)Nc1ccc(Sc2nc(Nc3cc(C)[nH]n3)c(C)c(N3CCC(CCN(C)C)CC3)n2)cc1 | < 1 µM
COc1c(Nc2cc(C)[nH]n2)nc(Sc2ccc(NC(=O)C3CC3)cc2)nc1NC1CCNCC1 | 0.1 to 1 µM
COc1c(Nc2cc(C)[nH]n2)nc(Sc2ccc(S(=O)(=O)C(C)(C)c3cccc(Cl)c3F)cc2F)nc1N1CCN(CCN(C)C)CC1 | < 1 µM
COc1c(Nc2cc(C)[nH]n2)nc(Sc2ccc(S(=O)(=O)C(C)(C)c3cc(F)cc(Cl)c3F)cc2F)nc1N1CCOCC1 | < 1 µM
COc1c(Nc2cc(C)[nH]n2)nc(Sc2ccc(S(=O)(=O)Cc3cccc(F)c3F)cc2F)nc1N1CCOCC1 | < 1 µM
CSc1nc(Nc2cc(C)[nH]n2)c(C)c(N2CCN(CCN(C)C)CC2)n1 | < 1 µM
COc1c(Nc2cc(C)[nH]n2)nc(Sc2ccc(S(=O)(=O)Cc3cccnc3)cc2)nc1N1CCN(CCN(C)C)CC1 | < 1 µM
COc1c(Nc2cc(C)[nH]n2)nc(Sc2ccc(NC(=O)C3CC3)cc2)nc1N1CCN(CC2CC2)CC1 | < 1 µM
CCOc1c(Nc2cc(C)[nH]n2)nc(Sc2ccc(NC(=O)C3CCCC3)cc2)nc1N1CCCCC1 | 0.1 to 1 µM
COc1ccccc1CS(=O)(=O)c1ccc(Sc2nc(Nc3cc(C)[nH]n3)c(OC)c(N3CCN(CCN(C)C)CC3)n2)cc1 | < 1 µM
CCCOc1c(Nc2cc(C)[nH]n2)nc(Sc2ccc(NC(=O)C3CC3)cc2)nc1N(CC)CC | 0.1 to 1 µM
CCOc1c(Nc2cc(C)[nH]n2)nc(Sc2ccc(NC(=O)C3CC3)cc2)nc1N1CCOCC1 | < 1 µM
COc1c(Nc2cc(C)[nH]n2)nc(Sc2ccc(NC(C)=O)cc2)nc1N1CCN(C(=N)N)CC1 | < 1 µM
CCN(CC)c1nc(Sc2ccc(NC(C)=O)cc2)nc(Nc2cc(C)[nH]n2)c1C | < 1 µM
COc1c(Nc2cc(C)[nH]n2)nc(Sc2ccc(S(=O)(=O)Cc3ccccc3)cc2)nc1N1CCO[C@H](C)C1 | < 1 µM
COc1c(Nc2cc(C)[nH]n2)nc(Sc2ccc(S(=O)(=O)Cc3cccc(C(N)=O)c3F)cc2F)nc1N1CCOCC1 | < 1 µM
COc1c(Nc2cc(C)[nH]n2)nc(Sc2ccc(S(=O)(=O)Cc3cccc(C(F)(F)F)c3)cc2)nc1N1CCN(CCN(C)C)CC1 | < 1 µM
COc1c(Nc2cc(C)[nH]n2)nc(Sc2ccc(S(=O)(=O)Cc3ccccc3C(=O)O)cc2)nc1N1CCN(CCN(C)C)CC1 | < 1 µM
CCC(=O)N1CCN(c2nc(Sc3ccc(NC(C)=O)cc3)nc(Nc3cc(C)[nH]n3)c2OC)CC1 | < 1 µM
COc1c(Nc2cc(C)[nH]n2)nc(Sc2ccc(NC(C)=O)cc2)nc1N1CCOC[C@H]1C | < 1 µM
COc1c(Nc2cc(C)[nH]n2)nc(Sc2ccc(S(=O)(=O)C(C)(C)c3cccc([N+](=O)[O-])c3F)cc2F)nc1N1CCC(CCN(C)C)CC1 | < 1 µM
COc1c(Nc2cc(C)[nH]n2)nc(Sc2ccc(NC(=O)C3CC3)cc2)nc1N1CCCCC1 | < 1 µM
CCOc1c(Nc2cc(C)[nH]n2)nc(Sc2ccc(NC(C)=O)cc2)nc1N1CCN(C2CCN(C)CC2)CC1 | 0.1 to 1 µM
COc1c(Nc2cc(C)[nH]n2)nc(Sc2ccc(S(=O)(=O)Cc3cccc(NC(C)=O)c3)cc2)nc1N1CCN(CCN(C)C)CC1 | < 1 µM
